Patent publication US8859559B2, “Substituted pyrazines and their use in the treatment of disease” (Boehringer Ingelheim International GmbH, priority 2011, dated 2014)

target: T1, ENaC (Epithelial Sodium Channel) (Mus musculus, UniProt Q61180+Q9WU38+Q9WU39); assay: Ussing chamber: inhibition of amiloride sensitive short circuit current (I_sc) in M-1 cells; type: cell-based; conditions: mouse kidney M-1 cells
T1 construct: Mouse kidney M-1 cells were cultivated in DMEM; endogenous in cells; host or cells: Mouse kidney M-1 cells (dexamethasone-treated, on transwell filters)
T1 sequence (Q61180 1-699): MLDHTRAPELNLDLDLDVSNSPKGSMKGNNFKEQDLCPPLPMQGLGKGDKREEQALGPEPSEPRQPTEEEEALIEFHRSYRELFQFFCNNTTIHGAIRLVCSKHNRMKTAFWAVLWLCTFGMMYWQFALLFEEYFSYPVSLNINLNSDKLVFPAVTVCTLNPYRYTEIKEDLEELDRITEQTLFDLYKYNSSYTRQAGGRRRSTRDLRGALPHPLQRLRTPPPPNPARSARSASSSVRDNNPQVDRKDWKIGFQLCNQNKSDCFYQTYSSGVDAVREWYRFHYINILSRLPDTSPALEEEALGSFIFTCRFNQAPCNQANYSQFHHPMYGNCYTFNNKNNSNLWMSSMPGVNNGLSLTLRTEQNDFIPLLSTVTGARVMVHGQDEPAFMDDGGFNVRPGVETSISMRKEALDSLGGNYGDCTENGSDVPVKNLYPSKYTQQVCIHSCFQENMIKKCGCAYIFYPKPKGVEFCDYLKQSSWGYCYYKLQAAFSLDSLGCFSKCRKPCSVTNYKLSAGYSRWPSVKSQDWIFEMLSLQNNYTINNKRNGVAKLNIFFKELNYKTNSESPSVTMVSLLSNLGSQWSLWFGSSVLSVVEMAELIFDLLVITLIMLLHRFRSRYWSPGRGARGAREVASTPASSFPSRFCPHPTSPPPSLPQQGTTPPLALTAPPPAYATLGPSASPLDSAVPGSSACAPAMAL
T1 sequence (Q9WU38 1-638): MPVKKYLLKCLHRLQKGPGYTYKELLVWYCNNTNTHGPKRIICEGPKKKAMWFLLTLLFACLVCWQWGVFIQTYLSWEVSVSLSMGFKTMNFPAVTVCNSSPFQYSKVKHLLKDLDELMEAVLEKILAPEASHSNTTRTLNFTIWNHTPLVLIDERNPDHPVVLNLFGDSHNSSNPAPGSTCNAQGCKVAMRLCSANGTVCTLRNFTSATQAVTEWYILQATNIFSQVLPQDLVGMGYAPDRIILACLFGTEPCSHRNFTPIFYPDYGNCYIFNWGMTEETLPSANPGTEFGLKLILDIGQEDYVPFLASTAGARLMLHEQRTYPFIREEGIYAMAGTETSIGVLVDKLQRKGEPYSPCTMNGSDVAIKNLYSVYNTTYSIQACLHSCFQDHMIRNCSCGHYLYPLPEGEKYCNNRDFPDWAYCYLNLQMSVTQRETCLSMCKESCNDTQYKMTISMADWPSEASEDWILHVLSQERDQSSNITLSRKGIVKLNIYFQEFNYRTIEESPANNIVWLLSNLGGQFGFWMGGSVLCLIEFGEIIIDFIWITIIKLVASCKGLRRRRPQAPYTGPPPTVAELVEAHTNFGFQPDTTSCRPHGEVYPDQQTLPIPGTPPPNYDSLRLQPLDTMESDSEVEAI
T1 sequence (Q9WU39 1-655): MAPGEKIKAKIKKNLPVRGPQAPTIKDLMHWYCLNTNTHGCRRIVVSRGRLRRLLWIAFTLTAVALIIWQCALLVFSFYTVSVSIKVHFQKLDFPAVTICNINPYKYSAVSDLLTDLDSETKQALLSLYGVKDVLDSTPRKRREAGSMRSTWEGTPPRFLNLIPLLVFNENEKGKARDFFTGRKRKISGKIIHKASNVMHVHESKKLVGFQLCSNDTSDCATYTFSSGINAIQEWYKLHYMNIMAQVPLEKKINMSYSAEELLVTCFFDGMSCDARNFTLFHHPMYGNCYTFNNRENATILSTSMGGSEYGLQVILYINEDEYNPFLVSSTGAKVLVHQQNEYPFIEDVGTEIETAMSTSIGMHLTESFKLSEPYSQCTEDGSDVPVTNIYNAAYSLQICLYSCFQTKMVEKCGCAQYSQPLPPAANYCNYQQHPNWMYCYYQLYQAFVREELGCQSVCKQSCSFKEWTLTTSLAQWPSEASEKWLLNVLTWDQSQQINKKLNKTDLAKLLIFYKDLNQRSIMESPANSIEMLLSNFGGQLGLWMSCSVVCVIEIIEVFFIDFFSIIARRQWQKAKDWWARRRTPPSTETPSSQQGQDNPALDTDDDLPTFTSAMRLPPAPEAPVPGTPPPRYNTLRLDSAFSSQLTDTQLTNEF
Experimental: Mouse kidney M-1 cells were cultivated in DMEM containing 5% FCS and 5 μM dexamethasone for 10 to 12 days on polyester transwell filters. Filters were inserted into a teflon-coated well-plate which fit into the in-house ussing chamber system. Prior to measurement the medium of M-1 cells was replaced with Caco-2 transport buffer (Invitrogen, Germany). During measurements, the Ussing chamber temperature was kept at 37° C. Short circuit currents (I_sc) were measured in the voltage-clamp mode using an in-house built amplifier (Boehringer Ingelheim, Biberach) with the software package Lab View for data acquisition and analysis. The transepithelial electrical resistance (TEER) was determined by the application of voltage steps of ±5 mV every 5 sec. Compounds were administered at a final concentration of 3 μM or at increasing concentrations (1-3-10 μM) to the apical solution. At the end of each experiment the amiloride sensitive I_SC was measured by adding 3 μM amiloride to the apical compartment. Results are expressed as inhibition in percent of the amiloride effect or as IC50. With the example compounds given above, the following IC50 values were determined in the Ussing Chamber assay: […]

Row | IC50 | SMILES
1 | 10 nM | COC(=O)CCc1ccc(CN2CCC(NC(N)=NC(=O)c3nc(Cl)c(N)nc3N)CC2)cc1 [Example 1.45]
2 | 17 nM | CCOC(=O)c1ccc(=O)n(-c2ccc(CN3CCC(NC(N)=NC(=O)c4nc(Cl)c(N)nc4N)CC3)cc2)c1 [Example 1.16]
3 | 4 nM | N/C(=N\C(=O)c1nc(Cl)c(N)nc1N)NC1CCN(Cc2ccc(C(=O)NCCOCCO)cc2)CC1 [Example 1.54]
4 | 5 nM | COC(=O)c1ccc(CN2CCC(N/C(N)=N/C(=O)c3nc(Cl)c(N)nc3N)CC2)c(OC)c1 [Example 1.1]
5 | 6 nM | NC(=NC(=O)c1nc(Cl)c(N)nc1N)NC1CCN(Cc2ccc(-n3cc(COCCO)nn3)cc2)CC1 [Example 3.11]
6 | 57 nM | NC(=NC(=O)c1nc(Cl)c(N)nc1N)NC1CCN(Cc2ccc(-n3cc(CCC(=O)O)nn3)cc2)CC1 [Example 3.13]
7 | 6 nM | NC(=NC(=O)c1nc(Cl)c(N)nc1N)NC1CCN(Cc2ccc(C(=O)NCCOCCOCCO)cc2)CC1 [Example 1.39]
8 | 11 nM | COc1ccc(C(=O)CN2CCC(NC(N)=NC(=O)c3nc(Cl)c(N)nc3N)CC2)cc1 [Example 1.20]
9 | 136 nM | N/C(=N\C(=O)c1nc(Cl)c(N)nc1N)NC1CCN(C(C(=O)O)c2ccccc2)CC1 (stereo not drawn) [Example 8.1]
10 | 44 nM | NC(=NC(=O)c1nc(Cl)c(N)nc1N)NC1CCN(Cc2ccc(CC(=O)O)cc2)CC1 [Example 8.13]
11 | 2 nM | CN(Cc1cn(-c2ccc(CN3CCC(NC(N)=NC(=O)c4nc(Cl)c(N)nc4N)CC3)cc2)nn1)C(=O)CCNCCOCCOCCOCCO [Example 5.3]
12 | 25 nM | [N-]=[N+]=NCCOCCOCCOCCn1cc(-c2ccc(CN3CCC(NC(N)=NC(=O)c4nc(Cl)c(N)nc4N)CC3)cc2)nn1 [Example 3.32]
13 | 4 nM | NC(=NC(=O)c1nc(Cl)c(N)nc1N)NC1CCN(Cc2cccc(C(=O)NCCOCCO)c2)CC1 [Example 1.65]
14 | 29 nM | N/C(=N\C(=O)c1nc(Cl)c(N)nc1N)NC1CCN(Cc2ccc(CCn3cc(CCC(=O)N(CCO)CCO)nn3)cc2)CC1 [Example 3.1]
15 | 10 nM | NC(=NC(=O)c1nc(Cl)c(N)nc1N)NC1CCN(Cc2cccc(-c3cn(CCOCCOCCOCCOCCOCCO)nn3)c2)CC1 [Example 5.9]
16 | 7 nM | N/C(=N\C(=O)c1nc(Cl)c(N)nc1N)NC1CCN(Cc2ccc(O)cc2)CC1 [Example 1.31]
17 | 1 nM | NC(=NC(=O)c1nc(Cl)c(N)nc1N)NC1CCN(Cc2ccc(-c3cn(CCOCCOC(c4ccccc4)(c4ccccc4)c4ccccc4)nn3)cc2)CC1 [Example 3.30]
18 | 5 nM | NC(=NC(=O)c1nc(Cl)c(N)nc1N)NC1CCN(Cc2ccc(CCc3cccnc3)cc2)CC1 [Example 1.57]
19 | 6 nM | NC(=NC(=O)c1nc(Cl)c(N)nc1N)NC1CCN(Cc2ccc(S(=O)(=O)NCCO)cc2)CC1 [Example 1.63]
20 | 50 nM | NC(=NC(=O)c1nc(Cl)c(N)nc1N)NC1CCN(Cc2ccc(C(=O)O)cc2Cl)CC1 [Example 8.11]
21 | 22 nM | NC(=NC(=O)c1nc(Cl)c(N)nc1N)NC1CCN(Cc2ccc(CCn3cc(COCC(CO)(CO)CO)nn3)cc2)CC1 [Example 3.7]

Row | IC50 | SMILES
22 | 4 nM | COC(=O)Cc1cccc(CN2CCC(NC(N)=NC(=O)c3nc(Cl)c(N)nc3N)CC2)c1 [Example 1.6]
23 | 3 nM | C[N+](C)(C)CCNC(=O)c1cccc(CN2CCC(NC(N)=NC(=O)c3nc(Cl)c(N)nc3N)CC2)c1 [Example 2.3]
24 | 261 nM | COC(=O)COc1ccc(CN2CC(NC(N)=NC(=O)c3nc(Cl)c(N)nc3N)C2)cc1 [Example 1.66]
25 | 3 nM | NC(N)=NCc1ccc(CN2CCC(N/C(N)=N/C(=O)c3nc(Cl)c(N)nc3N)CC2)cc1 [Example 10.1]
26 | 4 nM | NC(=NC(=O)c1nc(Cl)c(N)nc1N)NC1CCN(Cc2ccc(-c3cn(CCOCCOCCOCCNCCOCCOCCO)nn3)cc2)CC1 [Example 3.35]
27 | 30 nM | NC(=NC(=O)c1nc(Cl)c(N)nc1N)NC1CCN(Cc2ccc(CCC(=O)O)cc2)CC1 [Example 8.14]
28 | 24 nM | NC(=NC(=O)c1nc(Cl)c(N)nc1N)NC1CCN(Cc2ccc(CCn3cc(COc4cccc(C(=O)NCCOCCO)c4)nn3)cc2)CC1 [Example 3.3]
29 | 19 nM | NC(=NC(=O)c1nc(Cl)c(N)nc1N)NC1CCN(Cc2ccc(C(=O)NCCOCCOCCOCCn3cc(COCCO)nn3)cc2)CC1 [Example 3.8]
30 | 165 nM | NC(=NC(=O)c1nc(Cl)c(N)nc1N)N[C@H]1CCCN(Cc2ccc(C(=O)O)cc2)C1 [Example 1.60]
31 | 47 nM | CC(C)(C)OC(=O)c1ccc(CN2CCC[C@@H](NC(N)=NC(=O)c3nc(Cl)c(N)nc3N)C2)cc1 [Example 1.61]
32 | 20 nM | COC(=O)COc1cccc(CN2CCC(NC(N)=NC(=O)c3nc(Cl)c(N)nc3N)CC2)c1 [Example 1.44]
33 | 8 nM | NC(=NC(=O)c1nc(Cl)c(N)nc1N)NC1CCN(Cc2ccc(-n3cc(COCC(CO)(CO)CO)nn3)cc2)CC1 [Example 3.19]
34 | 151 nM | NC(=NC(=O)c1nc(Cl)c(N)nc1N)NC1CCN(Cc2ccc(OCC(=O)O)c(OCC(=O)O)c2)CC1 [Example 8.5]
35 | 53 nM | NC(=NC(=O)c1nc(Cl)c(N)nc1N)NC1CCN(Cc2cc(C(=O)O)cc(C(=O)NCCOCCO)c2)CC1 [Example 8.6]
36 | 13 nM | NC(=NC(=O)c1nc(Cl)c(N)nc1N)NC1CCN(Cc2ccc(OCc3cn(CCOCCOCCOCCOCCOCCOC(c4ccccc4)(c4ccccc4)c4ccccc4)nn3)cc2)CC1 [Example 3.23]
37 | 16 nM | CC(=O)N1CCN(C(=O)CCc2cn(CCc3ccc(CN4CCC(NC(N)=NC(=O)c5nc(Cl)c(N)nc5N)CC4)cc3)nn2)CC1 [Example 3.44]
38 | 3 nM | NC(=NC(=O)c1nc(Cl)c(N)nc1N)NC1CCN(Cc2ccc(-c3cn(CCOCCO)nn3)cc2)CC1 [Example 5.6]
39 | 4 nM | COC(=O)c1ccc(CN2CCC(N/C(N)=N/C(=O)c3nc(Cl)c(N)nc3N)CC2)c(Cl)c1 [Example 1.12]
40 | 10 nM | N/C(=N\C(=O)c1nc(Cl)c(N)nc1N)NC1CCN(Cc2ccc(CO)cc2)CC1 [Example 1.2]
41 | 1 nM | CN(Cc1cn(-c2ccc(CN3CCC(NC(N)=NC(=O)c4nc(Cl)c(N)nc4N)CC3)cc2)nn1)C(=O)CCNCCOCCOCCOCCOC(c1ccccc1)(c1ccccc1)c1ccccc1 [Example 3.20]

Row | SMILES | IC50
42 | NC(=NC(=O)c1nc(Cl)c(N)nc1N)NC1CC2CCC(C1)N2Cc1ccccc1 (single isomer, unassigned) [Example 1.27] | 49 nM
